Laboratory results published in patent US20180338964A1, “3-(PIPERIDIN-4-YL)-ISOXAZOL-3(OH)-ONES FOR TREATMENT OF DERMATOLOGIC DISORDERS” (Emeriti Pharma AB, priority 2014, published 2018).

What was measured:
plasminogen kringle 1 = molecular target: T1, plasminogen kringle 1 (Homo sapiens, UniProt P00747); assay: NMR competition assay (1D T1rho) for binding to plasminogen kringle 1, tranexamic acid as reference
T1 construct: Signal intensities from free tranexamic acid are reduced when recombinant kringle 1 protein is added
T1 sequence (P00747 103-181 limits assumed): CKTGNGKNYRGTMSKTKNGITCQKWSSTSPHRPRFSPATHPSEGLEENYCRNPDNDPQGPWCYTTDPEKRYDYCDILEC
Experimental: The NMR experiment identifies compounds binding to the lysine binding pocket in a competition assay where tranexamic acid was used as reference compound and 1D T1rho experiments were used for detection. Signal intensities from free tranexamic acid are reduced when recombinant kringle 1 protein is added due to binding to this protein. The NMR signals from tranexamic acid regain intensity when an added compound displaces it from the lysine binding pocket of kringle 1.
The compounds were run one-by-one at a concentration between 15 and 300 μM. The concentration of protein and tranexamic acid were 10 and 100 μM respectively. A test compound resulting in at least 10% increase in tranexamic acid intensity (displacement) was considered binding to kringle 1.

[1] = treatment of bleeding disorders; cited from earlier work
melasma = conditions: cited from earlier work
stratum corneum barrier = conditions: topically applied, healthy volunteer, after experimental damage to stratum corneum; cited from earlier work
[2] = test system: fibrinolysis in human plasma clot (tPA activation of plasminogen); conditions: citrated platelet poor human plasma, tPA 80 ng/ml, 37° C.; for IC50: read-out: IC50 (clot-lysis time prolonged to twice the vehicle value); for IC90: read-out: IC90 (clot-lysis time prolonged to nine times the vehicle value)
[3] = oral TXA; cited from earlier work
[4] = test system: stratum corneum barrier function; conditions: topical 3% (˜0.2M) TXA, rosacea patients; cited from earlier work
[5] = test system: stratum corneum protease activity; conditions: ˜13% EACA (1 M) cream, rosacea patients; cited from earlier work

SMILES | Kd (plasminogen kringle 1) [nM] | also measured
O=c1cc([C@H]2CCN[C@@H](CN3CCC[C@H]3C(F)(F)F)C2)o[nH]1 [5-[(2R,4S)-2-{[(2S)-2-(trifluoromethyl)pyrrolidin-1-yl]methyl}piperidin-4-yl]-2,3-dihydro-1,2-oxazol-3-one] | 400 | –
CS(=O)(=O)c1ccc(C[C@H]2C[C@@H](c3cc(=O)[nH]o3)CCN2)cc1 [5-[(2R,4S)-2-[(4-methanesulfonylphenyl)methyl]piperidin-4-yl]-2,3-dihydro-1,2-oxazol-3-one] | 400 | –
NCC1CCC(C(=O)O)CC1 (stereo not shown) [TXA, 4-(aminomethyl)cyclohexane-1-carboxylic acid] | – | therapeutic plasma concentration [1]: 30 to 90 µM; effect on melasma (melasma; topical 5% (˜0.3M) TXA versus vehicle): no effect; erythema (melasma; topical 5% (˜0.3M) TXA): produced erythema; stratum corneum barrier recovery (stratum corneum barrier): enhance stratum corneum barrier recovery; IC50 [2]: 6.66 µM; IC90 [2]: 55.4 µM; allergic skin reaction, fraction of treated [3]: < 1/100; stratum corneum barrier function [4]: improved stratum corneum barrier function
O=c1cc([C@H]2CCN[C@@H](COC3CCCCC3)C2)o[nH]1 [5-[(2R,4S)-2-[(cyclohexyloxy)methyl]piperidin-4-yl]-2,3-dihydro-1,2-oxazol-3-one] | 300 | –
CC(C)(C)c1ccc(C[C@H]2C[C@@H](c3cc(=O)[nH]o3)CCN2)cc1 [5-[(2R,4S)-2-[(4-tert-butylphenyl)methyl]piperidin-4-yl]-2,3-dihydro-1,2-oxazol-3-one] | 300 | –
CC(C)(C)c1cc(C[C@H]2C[C@@H](c3cc(=O)[nH]o3)CCN2)cc(C(C)(C)C)c1 [5-[(2R,4S)-2-[(3,5-di-tert-butylphenyl)methyl]piperidin-4-yl]-2,3-dihydro-1,2-oxazol-3-one] | 1000 | –
Cn1nnc([C@H]2C[C@@H](c3cc(=O)[nH]o3)CCN2)n1 [5-[(2R,4S)-2-(2-methyl-2H-1,2,3,4-tetrazol-5-yl)piperidin-4-yl]-2,3-dihydro-1,2-oxazol-3-one] | 200 | –
O=c1cc([C@H]2CCN[C@@H](c3ccc(C(F)(F)F)nc3)C2)o[nH]1 [5-[(2R,4S)-2-[6-(trifluoromethyl)pyridin-3-yl]piperidin-4-yl]-2,3-dihydro-1,2-oxazol-3-one] | 280 | –
CC(C)(C)c1cccc([C@H]2C[C@@H](c3cc(=O)[nH]o3)CCN2)c1 [5-[(2R,4S)-2-(3-tert-butylphenyl)piperidin-4-yl]-2,3-dihydro-1,2-oxazol-3-one] | 280 | –
O=c1cc([C@H]2CCN[C@@H](c3ccc(F)cc3)C2)o[nH]1 [5-[(2R,4S)-2-(4-fluorophenyl)piperidin-4-yl]-2,3-dihydro-1,2-oxazol-3-one] | 600 | –
O=c1cc([C@H]2CCN[C@@H](c3ccc(C(F)(F)F)cc3F)C2)o[nH]1 [5-[(2R,4S)-2-[2-fluoro-4-(trifluoromethyl)phenyl]piperidin-4-yl]-2,3-dihydro-1,2-oxazol-3-one] | 300 | –
O=c1cc([C@H]2CCN[C@@H](c3ccc(OC(F)(F)F)cc3F)C2)o[nH]1 [5-[(2R,4S)-2-[2-fluoro-4-(trifluoromethoxy)phenyl]piperidin-4-yl]-2,3-dihydro-1,2-oxazol-3-one] | 300 | –
NCCCCCC(=O)O [EACA, 6-aminohexanoic acid] | – | stratum corneum protease activity [5]: reduction in stratum corneum protease activity; IC50 [2]: 72.7 µM; IC90 [2]: 637 µM
Cc1cc(C(F)(F)F)ccc1[C@H]1C[C@@H](c2cc(=O)[nH]o2)CCN1 [5-[(2R,4S)-2-[2-methyl-4-(trifluoromethyl)phenyl]piperidin-4-yl]-2,3-dihydro-1,2-oxazol-3-one] | 300 | –
O=c1cc([C@H]2CCN[C@@H](c3cc(F)c(F)cc3F)C2)o[nH]1 [5-[(2R,4S)-2-(2,4,5-trifluorophenyl)piperidin-4-yl]-2,3-dihydro-1,2-oxazol-3-one] | 300 | –
O=c1cc([C@H]2CCN[C@@H](CN3CCn4c(nnc4C(F)(F)F)C3)C2)o[nH]1 [5-[(2R,4S)-2-{[3-(trifluoromethyl)-5H,6H,7H,8H-[1,2,4]triazolo[4,3-a]pyrazin-7-yl]methyl}piperidin-4-yl]-2,3-dihydro-1,2-oxazol-3-one] | 240 | –
O=c1cc([C@H]2CCN[C@@H](Cc3ccc(C(F)(F)F)c(F)c3)C2)o[nH]1 [5-[(2R,4S)-2-{[3-fluoro-4-(trifluoromethyl)phenyl]methyl}piperidin-4-yl]-2,3-dihydro-1,2-oxazol-3-one] | 240 | –

More lines, in order of falling Kd (plasminogen kringle 1), values ahead:

Kd (plasminogen kringle 1) [nM] | SMILES | also measured
200 | O=c1cc([C@H]2CCN[C@@H](c3ccc(Cl)cc3Cl)C2)o[nH]1 [5-[(2R,4S)-2-(2,4-dichlorophenyl)piperidin-4-yl]-2,3-dihydro-1,2-oxazol-3-one] | –
200 | CS(=O)(=O)c1ccc([C@H]2C[C@@H](c3cc(=O)[nH]o3)CCN2)cc1 [5-[(2R,4S)-2-(4-methanesulfonylphenyl)piperidin-4-yl]-2,3-dihydro-1,2-oxazol-3-one] | –
200 | O=c1cc([C@H]2CCN[C@@H](c3ccc(F)cc3F)C2)o[nH]1 [5-[(2R,4S)-2-(2,4-difluorophenyl)piperidin-4-yl]-2,3-dihydro-1,2-oxazol-3-one] | –
200 | O=c1cc([C@H]2CCN[C@@H](c3ccc(C(F)(F)F)c(F)c3)C2)o[nH]1 [5-[(2R,4S)-2-[3-fluoro-4-(trifluoromethyl)phenyl]piperidin-4-yl]-2,3-dihydro-1,2-oxazol-3-one] | –
140 | O=c1cc([C@H]2CCN[C@@H](Cc3cc(F)c(F)c(F)c3)C2)o[nH]1 [5-[(2R,4S)-2-[(3,4,5-trifluorophenyl)methyl]piperidin-4-yl]-2,3-dihydro-1,2-oxazol-3-one] | –
100 | O=c1cc([C@H]2CCN[C@@H](c3ccc(Cl)cc3)C2)o[nH]1 [5-[(2R,4S)-2-(4-chlorophenyl)piperidin-4-yl]-2,3-dihydro-1,2-oxazol-3-one] | –
100 | O=c1cc([C@H]2CCN[C@@H](Cc3ccc(F)c(F)c3)C2)o[nH]1 [5-[(2R,4S)-2-[(3,4-difluorophenyl)methyl]piperidin-4-yl]-2,3-dihydro-1,2-oxazol-3-one] | –
100 | CC(C)(C)c1ccc(C[C@@H]2C[C@@H](c3cc(=O)[nH]o3)CCN2)cc1 [5-[(2S,4S)-2-[(4-tert-butylphenyl)methyl]piperidin-4-yl]-2,3-dihydro-1,2-oxazol-3-one] | –
100 | Cc1cc([C@H]2C[C@@H](c3cc(=O)[nH]o3)CCN2)ccc1C(F)(F)F [5-[(2R,4S)-2-[3-methyl-4-(trifluoromethyl)phenyl]piperidin-4-yl]-2,3-dihydro-1,2-oxazol-3-one] | –
100 | O=c1cc([C@H]2CCN[C@@H](Cc3ccc(F)cc3F)C2)o[nH]1 [5-[(2R,4S)-2-[(2,4-difluorophenyl)methyl]piperidin-4-yl]-2,3-dihydro-1,2-oxazol-3-one] | –
100 | O=c1cc([C@H]2CCN[C@@H](c3ccc(C(F)(F)F)cc3)C2)o[nH]1 [5-[(2R,4S)-2-[4-(trifluoromethyl)phenyl]piperidin-4-yl]-2,3-dihydro-1,2-oxazol-3-one] | –
